Measurements: US20210052741A1, “GENE THERAPY METHODS AND COMPOSITIONS USING AUXOTROPHIC REGULATABLE CELLS” (AUXOLYTIC LTD, priority 2018, published 2021)
Several values for one entry are separate records, joined by “and”; a condition that tells them apart may be missing. Equal entries are not always repeated.

Columns and labels:
Type in all cases: cell-based, human
[1] = tested on: GFP+ UMPS^KO/KO hESCs; test: 5-FOA resistance in hESC co-culture (FACS); conditions: for Viable cell counts, GFP+: co-culture
Description: (§1) To assess resistance to 5-FOA, the UMPS-KO hESCs were genetically engineered to express GFP from an expression cassette integrated into a safe-harbor locus for easier identification in co-culture with UMPS-WT cells.
(§2) These UMPS^KO/KO hESCs were mixed with UMPS^WT/WT cells that were not expressing GFP and followed up by fluorescence-activated cell sorting (FACS) analysis in the presence of different concentrations of 5-FOA. Table 16 provides counts of viable GFP+ and GFP− cells after culture with different 5-FOA concentrations.

[2] = tested on: GFP- UMPS^WT/WT hESCs; test: 5-FOA resistance in hESC co-culture (FACS); conditions: for Viable cell counts, GFP−: co-culture
Description: as §1, §2

[3] = tested on: Mock T cells; test: 5-FOA selection, cell counts after 4 days; conditions: Mock, No UMP/Uridine; for Average number of cells per volume unit: 4 days in 5-FOA
Protocol: (§3) 5-FOA selects for uracil auxotrophic cells in other organisms (e.g. Boeke et al. 1984, Mol. Gen. Genet. 197(2):345-6), which is hereby incorporated by reference in its entirety). To investigate the potential utility of 5-FOA for the selection of uracil auxotrophs among human cells, the UMPS gene was targeted in human T cells by Cas9-gRNA complex electroporation followed by recovery (as shown in Example 2) followed by an assay of resistance to 5-FOA treatment (FIG. 3A). Cells were grown in 5-FOA and a variety of combinations of serum and uracil sources for 4 days before cell counting was performed.

[4] = tested on: UMPS-7 targeted T cells; test: 5-FOA selection, cell counts after 4 days; conditions: No UMP/Uridine; for Average number of cells per volume unit: UMPS-7, 4 days in 5-FOA
Protocol: as §3

[5] = tested on: UMPS^KO/KO/GFP^+ K562 cells mixed with UMPS^WT/WT K562 cells; test: 5-FOA resistance in mixed K562 culture; conditions: for Percentages of GFP+ cells, Day 1 / Percentages of GFP+ cells, Day 2 / Percentages of GFP+ cells, Day 3 / Percentages of GFP+ cells, Day 4 / Percentages of GFP+ cells, Day 6 / Percentages of GFP+ cells, Day 8: with Uridine
Protocol: To determine the resistance of UMP S knockout cells to 5-FOA the purified uMPS^KO/KO/GFP^+ K562 cells were mixed at an equal ratio with UMPS^wT/WT/GFP-negative K562 cells. The cells were cultured in the presence of Uridine and different concentrations of 5-FOA (FIG. 6F).

For `O=C(O)c1[nH]c(=O)[nH]c(=O)c1F` [5-FOA, 5-fluoroorotic acid], the “tolerance of UMPS-KO cells to 5-FOA” value ([1]; 0.25 μg/ml) was “tolerated the concentration of 0.25 μg/ml well”, the “Viable cell counts, GFP+” value ([1]; 5-FOA 0.25 μg/ml) was 142820 and the “Viable cell counts, GFP+” value ([1]; 5-FOA 2.5 μg/ml) was 11812.5. For the same compound, the “Viable cell counts, GFP+” value ([1]; 5-FOA 25 μg/ml) was 8455.98, the “proliferation of UMPS-KO cells in 5-FOA” value ([1]; concentrations above 0.25 μg/ml) was “impaired proliferation at higher concentrations” and the “cells GFP+” value ([1]; groups with 5-FOA (54.8% without 5-FOA)) was 95.0%. For the same compound, the “sensitivity of UMPS-WT cells to 5-FOA” value ([2]; all tested concentrations (0.25-25 μg/ml)) was “sensitive to all tested 5-FOA concentrations”, the “Viable cell counts, GFP−” value ([2]; 5-FOA 0.25 μg/ml) was 5180 and the “Viable cell counts, GFP−” value ([2]; 5-FOA 2.5 μg/ml) was 687.5. For the same compound, the “Viable cell counts, GFP−” value ([2]; 5-FOA 25 μg/ml) was 334.02, the “Average of cells per volume unit” value ([3]; 4 days in 5-FOA without serum) was 12279.07 cells per volume unit and 16467.39 cells per volume unit and the “Average number of cells per volume unit” value ([3]; No Serum) was 13947.04 cells per volume unit. The “Average number of cells per volume unit” value ([3]; With Serum) was 13403.28 cells per volume unit, the “Average of cells per volume unit” value ([4]; UMPS-7, 4 days in 5-FOA without serum) was 52156.98 cells per volume unit and 67438.73 cells per volume unit and the “Average number of cells per volume unit” value ([4]; No Serum) was 56895.21 cells per volume unit. For the same compound, the “Average number of cells per volume unit” value ([4]; With Serum) was 54282.95 cells per volume unit, the “Number of GFP + cells per μl, Day 1” value ([5]; 10 ug/ml 5-FOA) was 87013.04 cells per μl and the “Number of GFP + cells per μl, Day 2” value ([5]; 10 ug/ml 5-FOA) was 163245.74 cells per μl. For the same compound, the “Number of GFP + cells per μl, Day 4” value ([5]; 10 ug/ml 5-FOA) was 569281.05 cells per μl, the “Number of GFP + cells per μl, Day 6” value ([5]; 10 ug/ml 5-FOA) was 550780.31 cells per μl and the “Number of GFP + cells per μl, Day 8” value ([5]; 10 ug/ml 5-FOA) was 719624.13 cells per μl. The “Percentages of GFP+ cells, Day 1” value ([5]; 10 ug/ml 5-FOA) was 45.4% and 48.5%, the “Percentages of GFP+ cells, Day 2” value ([5]; 10 ug/ml 5-FOA) was 54.7% and 56.8% and the “Percentages of GFP+ cells, Day 3” value ([5]; 10 ug/ml 5-FOA) was 65.6% and 64.0%. For the same compound, the “Percentages of GFP+ cells, Day 4” value ([5]; 10 ug/ml 5-FOA) was 64.8% and 69.7%, the “Percentages of GFP+ cells, Day 6” value ([5]; 10 ug/ml 5-FOA) was 79.1% and 76.5% and the “Percentages of GFP+ cells, Day 8” value ([5]; 10 ug/ml 5-FOA) was 85.0% and 79.8%. The “Number of GFP + cells per μl, Day 1” value ([5]; 100 ug/ml 5-FOA) was 115272.35 cells per μl, the “Number of GFP + cells per μl, Day 2” value ([5]; 100 ug/ml 5-FOA) was 106377.73 cells per μl and the “Number of GFP + cells per μl, Day 4” value ([5]; 100 ug/ml 5-FOA) was 376993.53 cells per μl. The “Number of GFP + cells per μl, Day 6” value ([5]; 100 ug/ml 5-FOA) was 501940.62 cells per μl, the “Number of GFP + cells per μl, Day 8” value ([5]; 100 ug/ml 5-FOA) was 693093.53 cells per μl and the “Percentages of GFP+ cells, Day 1” value ([5]; 100 ug/ml 5-FOA) was 52.6% and 48.9%. For the same compound, the “Percentages of GFP+ cells, Day 2” value ([5]; 100 ug/ml 5-FOA) was 67.1% and 64.2%, the “Percentages of GFP+ cells, Day 3” value ([5]; 100 ug/ml 5-FOA) was 79.5% and 71.4% and the “Percentages of GFP+ cells, Day 4” value ([5]; 100 ug/ml 5-FOA) was 85.2% and 74.4%. For the same compound, the “Percentages of GFP+ cells, Day 6” value ([5]; 100 ug/ml 5-FOA) was 92.1% and 86.2%, the “Percentages of GFP+ cells, Day 8” value ([5]; 100 ug/ml 5-FOA) was 92.8% and 82.8% and the “Number of GFP + cells per μl, Day 1” value ([5]; 1000 ug/ml 5-FOA) was 75925.72 cells per μl. For the same compound, the “Number of GFP + cells per μl, Day 2” value ([5]; 1000 ug/ml 5-FOA) was 79080.77 cells per μl, the “Number of GFP + cells per μl, Day 4” value ([5]; 1000 ug/ml 5-FOA) was 151010.55 cells per μl and the “Number of GFP + cells per μl, Day 6” value ([5]; 1000 ug/ml 5-FOA) was 217794.10 cells per μl. For the same compound, the “Number of GFP + cells per μl, Day 8” value ([5]; 1000 ug/ml 5-FOA) was 339282.35 cells per μl, the “Percentages of GFP+ cells, Day 1” value ([5]; 1000 ug/ml 5-FOA) was 51.9% and 49.4% and the “Percentages of GFP+ cells, Day 2” value ([5]; 1000 ug/ml 5-FOA) was 65.0% and 58.9%. The “Percentages of GFP+ cells, Day 3” value ([5]; 1000 ug/ml 5-FOA) was 72.9% and 66.9%, the “Percentages of GFP+ cells, Day 4” value ([5]; 1000 ug/ml 5-FOA) was 82.0% and 77.7% and the “Percentages of GFP+ cells, Day 6” value ([5]; 1000 ug/ml 5-FOA) was 92.6% and 90.5%. The “Percentages of GFP+ cells, Day 8” value ([5]; 1000 ug/ml 5-FOA) was 90.1% and 75.7%, the “proliferation of UMPS knockout cells in 5-FOA” value ([5]; 10 and 100 μg/ml 5-FOA) was “proliferated well” and the “fraction of UMPS^KO/KO cells” value ([5]; all 5-FOA concentrations used) was “increased over time”. For the same compound, the “cell growth of UMPS knockout cells in 5-FOA” value ([5]; highest concentration (1000 ug/ml)) was “slowed their cell growth down”.
